The source of these data is publication PMC8387997 (ACS Omega, 2021).

One assay relates to BRD9. The settings on record: BRD9 versus other bromodomains; cited from earlier work.
Another assay deals with SMARCA2B (Homo sapiens, UniProt P51531). The experiment in a line: bromoSCAN. The class given is binding.
The test system of assay [1] is panel of 32 bromodomains, including BET bromodomains. The experiment in a line: bromoMAX panel screen, Eurofins. As to conditions: screened at 10 μM against 32 bromodomains. It is filed as binding.
For the next assay, the target named is PB1(2) (Homo sapiens, UniProt Q86U86). The experiment in a line: bromoSCAN. It is filed as binding.
Sequence of PB1(2) (Q86U86 177-287 limits assumed): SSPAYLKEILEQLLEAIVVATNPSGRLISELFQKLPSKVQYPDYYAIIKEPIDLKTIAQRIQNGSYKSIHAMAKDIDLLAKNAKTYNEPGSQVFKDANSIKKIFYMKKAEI
A further assay concerns the target PB1(5) (Homo sapiens, UniProt Q86U86). Nature of the assay: bromoSCAN. The class given is binding. The settings on record: for selectivity for PB1(5) over SMARCA2B: from bromoSCAN KD values.

The structures appear in SMILES notation. Entries after “also recorded” stand apart in the source; their conditions may differ.

Sequence of PB1(5) (Q86U86 653-763 limits assumed): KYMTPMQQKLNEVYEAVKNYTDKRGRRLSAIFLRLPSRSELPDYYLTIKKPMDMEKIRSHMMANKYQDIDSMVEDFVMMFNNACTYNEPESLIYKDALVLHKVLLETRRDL
Sequence of SMARCA2B (P51531 1-1572 isoform P51531-2): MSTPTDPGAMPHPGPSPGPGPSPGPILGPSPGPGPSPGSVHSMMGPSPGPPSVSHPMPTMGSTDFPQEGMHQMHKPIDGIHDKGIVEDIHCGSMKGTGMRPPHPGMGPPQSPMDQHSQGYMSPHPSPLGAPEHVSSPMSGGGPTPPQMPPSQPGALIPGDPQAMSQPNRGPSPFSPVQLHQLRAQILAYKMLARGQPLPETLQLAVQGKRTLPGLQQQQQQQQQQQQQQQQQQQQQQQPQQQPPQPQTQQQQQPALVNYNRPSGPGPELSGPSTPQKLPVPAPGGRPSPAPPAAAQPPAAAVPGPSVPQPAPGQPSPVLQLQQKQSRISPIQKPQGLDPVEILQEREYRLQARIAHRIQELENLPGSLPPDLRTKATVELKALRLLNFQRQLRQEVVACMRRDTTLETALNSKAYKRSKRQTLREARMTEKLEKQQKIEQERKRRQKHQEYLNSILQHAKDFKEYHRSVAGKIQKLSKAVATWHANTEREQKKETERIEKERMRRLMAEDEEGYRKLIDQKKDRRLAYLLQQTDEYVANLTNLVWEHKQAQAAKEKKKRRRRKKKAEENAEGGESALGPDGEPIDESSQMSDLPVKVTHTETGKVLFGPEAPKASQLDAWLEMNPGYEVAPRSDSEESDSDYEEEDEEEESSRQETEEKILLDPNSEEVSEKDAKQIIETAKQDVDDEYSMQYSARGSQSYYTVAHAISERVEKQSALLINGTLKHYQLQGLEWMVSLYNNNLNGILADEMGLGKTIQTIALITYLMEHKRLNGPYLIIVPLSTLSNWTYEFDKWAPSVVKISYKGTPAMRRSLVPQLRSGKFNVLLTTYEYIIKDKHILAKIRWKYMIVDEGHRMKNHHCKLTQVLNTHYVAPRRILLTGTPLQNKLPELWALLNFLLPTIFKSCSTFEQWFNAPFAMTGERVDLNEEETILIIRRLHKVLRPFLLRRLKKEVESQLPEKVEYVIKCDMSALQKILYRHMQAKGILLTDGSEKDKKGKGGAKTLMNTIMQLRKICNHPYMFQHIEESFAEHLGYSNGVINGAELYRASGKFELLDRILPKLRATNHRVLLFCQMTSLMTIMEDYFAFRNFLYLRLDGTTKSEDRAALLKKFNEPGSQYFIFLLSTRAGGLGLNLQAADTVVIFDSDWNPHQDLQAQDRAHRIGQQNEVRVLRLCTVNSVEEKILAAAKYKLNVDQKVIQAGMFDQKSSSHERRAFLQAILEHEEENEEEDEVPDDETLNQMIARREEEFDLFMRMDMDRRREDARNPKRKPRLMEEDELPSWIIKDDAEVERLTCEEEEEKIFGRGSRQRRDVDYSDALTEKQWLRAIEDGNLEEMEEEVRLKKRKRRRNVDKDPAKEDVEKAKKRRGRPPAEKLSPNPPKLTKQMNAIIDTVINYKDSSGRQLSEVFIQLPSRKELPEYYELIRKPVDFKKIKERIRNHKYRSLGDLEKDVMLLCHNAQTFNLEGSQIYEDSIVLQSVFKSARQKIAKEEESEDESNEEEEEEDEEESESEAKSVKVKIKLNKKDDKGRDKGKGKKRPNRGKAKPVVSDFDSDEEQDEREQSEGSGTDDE

On to `CCn1cc(-c2cccc(C(F)(F)F)c2)c2sc(C(=N)NC3CCS(=O)(=O)CC3)cc2c1=O` [I-BRD9], for which, in the assay on BRD9, the “selectivity over a panel of other bromodomains” value is given as “more than 70 fold”.
In the case of `CCC(CC)C1CC12CCn1c2nc(=O)c2c(Cl)cccc21` (centres unmarked) [LM146, 6′-Chloro-2-(pentan-3-yl)-1′,2′-dihydro-5′H-spiro[cyclopropane-1,3′-pyrrolo[1,2-a]quinazolin]-5′-one], the Kd – broadly, the free concentration of one partner at which half of the binding sites on the other are occupied at equilibrium, for simple one-to-one binding – on SMARCA2B worked out at 2.1 µM; on PB1(2), 0.11 µM; on PB1(5), 0.061 µM. In assay [1], the “binding profile in bromoMAX panel” value is on record as “does not interact with bromodomains outside of sub-family VIII; also recorded: only binds to bromodomains within the sub-family VIII; also recorded: no binding to any bromodomains outside the sub-family VIII”. Further, at PB1(2) (from bromoSCAN KD values), the “selectivity for PB1(2) over SMARCA2B” value is given as ~19 fold. The “selectivity for PB1(5) over SMARCA2B” value on PB1(5) is ~34 fold.
As for `CCC(/C=C1\CCCn2c1nc(=O)c1c(Cl)cccc12)CC` [Compound 21, (E)-7-Chloro-4-(2-ethylbutylidene)-1,2,3,4-tetrahydro-6H-pyrido[1,2-a]quinazolin-6-one], the values for the Kd at SMARCA2B, on PB1(2) and at PB1(5) were 26 µM, 5.4 µM and 1.1 µM, respectively. Besides, the “selectivity for PB1(5) over SMARCA2B” value on PB1(5) was ~24 fold.
